# In the supplement of paper PMC10331698:
# ± gives the standard deviation of the averaged measurements.
# Assays:
# Experiment in all cases: level (log10 ratio to DMSO vehicle control); higher = higher biomarker level / cell amount than vehicle control
# Details in all cases: in DMSO
# [1] = compound: C=CC(=O)OCC(F)(F)C(F)(F)C(F)(F)C(F)(F)C(F)(F)C(F)(F)C(F)(F)F [1H,1H-Perfluorooctyl acrylate]
# Description: (§1)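 BioMAP Diversity Plus panel of 12 human primary cell co-culture systems (3C, 4H, LPS, SAg, BT, BF4T, BE3C, CASM3C, HDF3CGF, KF3CT, MyoF, Mphg). Compounds were added 1 h before stimulation and left for 24 h (MyoF 48 h; BT 72 h for soluble read-outs or 6 d for IgG). Biomarkers were read by ELISA, cytotoxicity by SRB, PBMC viability and proliferation by Alamar Blue. Each well value was divided by the mean of 8 DMSO control wells on the same plate and log10 transformed; duplicate blinded samples were tested at 4 concentrations.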
# [2] = compound: NCC(F)(F)C(F)(F)C(F)(F)C(F)(F)C(F)(F)C(F)(F)C(F)(F)F [1H,1H-Perfluorooctylamine]
# Description: as §1
# [3] = compound: O=C(O)C(F)(F)C(F)(F)C(F)(F)OC(F)(C(F)(F)F)C(F)(F)F [Perfluoro-4-isopropoxybutanoic acid]
# Description: as §1
# [4] = compound: O=C(O)C(F)(F)C(F)(F)OC(F)(F)F [Perfluoro-3-methoxypropanoic acid]
# Description: as §1
# [5] = compound: O=C(O)C(F)(F)OC(F)(F)C(F)(F)OC(F)(F)F [Perfluoro-3,6-dioxaheptanoic acid]
# Description: as §1
# [6] = compound: O=S(=O)(O)C(F)(F)C(F)(F)C(F)(F)C(F)(F)C(F)(F)C(F)(F)F [Perfluorohexanesulfonic acid]
# Description: as §1
# [7] = compound: OCCC(F)(F)C(F)(F)C(F)(F)C(F)(F)C(F)(F)C(F)(F)F [6:2 Fluorotelomer alcohol]
# Description: as §1
Test System,level (log10) ([1]; 6700 nM),level (log10) ([1]; 20000 nM),level (log10) ([1]; 60000 nM),level (log10) ([2]; 6700 nM),level (log10) ([2]; 20000 nM),level (log10) ([2]; 60000 nM),level (log10) ([3]; 6700 nM),level (log10) ([3]; 20000 nM),level (log10) ([3]; 60000 nM),level (log10) ([4]; 6700 nM),level (log10) ([4]; 20000 nM),level (log10) ([4]; 60000 nM),level (log10) ([5]; 6700 nM),level (log10) ([5]; 20000 nM),level (log10) ([5]; 60000 nM),level (log10) ([6]; 6700 nM),level (log10) ([6]; 20000 nM),level (log10) ([6]; 60000 nM),level (log10) ([7]; 6700 nM),level (log10) ([7]; 20000 nM)
BF4T:tPA,-0.0045 ± 0.013,0.0025 ± 0.0021,-0.0075 ± 0.025,-0.017 ± 0.023,-0.027 ± 0.021,0.003 ± 0.014,-0.036 ± 0.017,-0.015 ± 0.016,0.0145 ± 0.057,0.0015 ± 0.037,0.0035 ± 0.018,0.019 ± 0.04,-0.0365 ± 0.05,-0.0115 ± 0.063,-0.041 ± 0.068,-0.004 ± 0.023,-0.0125 ± 0.013,0.022 ± 0.0057,-0.0215 ± 0.032,-0.0135 ± 0.021
4H:CD62P/P-selectin,0.038 ± 0.05,-0.0155 ± 0.018,-0.047 ± 0.023,0.0025 ± 0.019,-0.028 ± 0.021,-0.0525 ± 0.047,0.001 ± 0.021,0.0165 ± 0.012,0.048 ± 0.033,-0.004 ± 0.0057,0.005 ± 0.011,0.0065 ± 0.029,-0.0245 ± 0.061,0.0025 ± 0.0092,-0.0185 ± 0.018,0.008 ± 0.058,0.0555 ± 0.043,0.112 ± 0.066,0.0165 ± 0.012,-0.004 ± 0.02
BE3C:EGFR,0.016 ± 0.0071,0.01 ± 0.025,0.02 ± 0.011,-0.005 ± 0.0099,-0.018 ± 0.0057,0.003 ± 0.0014,0.012 ± 0.027,0.0075 ± 0.005,0.044 ± 0.042,-0.0075 ± 0.05,0.0065 ± 0.018,0.0335 ± 0.04,-0.0185 ± 0.012,0.003 ± 0.021,0.007 ± 0.02,-0.005,-0.0085 ± 0.0078,0.001 ± 0.0028,0.004 ± 0.051,-0.0025 ± 0.049
BF4T:SRB,-0.003,-0.0055 ± 0.011,0.002 ± 0.025,-0.002 ± 0.0042,-0.005 ± 0.013,-0.0005 ± 0.016,-0.007 ± 0.0057,-0.015,-0.005 ± 0.0099,-0.0145 ± 0.0035,-0.0085 ± 0.0021,0.0025 ± 0.022,-0.007 ± 0.0057,-0.0035 ± 0.0021,-0.003 ± 0.0028,-0.01 ± 0.0085,-0.0115 ± 0.0078,-0.0005 ± 0.0021,-0.0065 ± 0.005,-0.0055 ± 0.0078
BT:sIL-2,-0.0455 ± 0.11,0.031 ± 0.028,-0.0025 ± 0.042,0.034 ± 0.079,0.022 ± 0.0085,-0.0465 ± 0.053,0.0175 ± 0.042,0.007 ± 0.016,0.0175 ± 0.035,-0.002 ± 0.13,-0.0015 ± 0.032,0.016 ± 0.0042,0.0035 ± 0.053,0.0105 ± 0.11,0.01 ± 0.072,-0.059 ± 0.031,0.0015 ± 0.035,-0.001 ± 0.027,-0.008 ± 0.057,-0.0135 ± 0.019
BF4T:PAI-I,0.008 ± 0.0014,0 ± 0.0014,0.0025 ± 0.013,-0.004 ± 0.02,-0.008 ± 0.016,0.0115 ± 0.005,0.004 ± 0.0057,0.0125 ± 0.0035,0.0085 ± 0.018,0.0015 ± 0.0064,0.0105 ± 0.0092,0.015 ± 0.017,-0.0215 ± 0.019,-0.018 ± 0.033,-0.002 ± 0.011,0.0005 ± 0.03,-0.015 ± 0.017,-0.018 ± 0.0028,0.013 ± 0.013,0.011 ± 0.0099
SAg:CD62E/E-Selectin,-0.0035 ± 0.0064,-0.036 ± 0.0042,-0.0335 ± 0.016,-0.0135 ± 0.028,-0.0055 ± 0.039,0 ± 0.011,-0.0025 ± 0.0021,0.0125 ± 0.015,-0.01 ± 0.023,0.004 ± 0.0099,-0.01 ± 0.018,-0.016 ± 0.018,-0.0015 ± 0.0021,0.001 ± 0.0042,0.021 ± 0.0057,-0.0115 ± 0.00071,-0.008 ± 0.02,0.0405 ± 0.0064,-0.0015 ± 0.0092,0.002 ± 0.027
